Legend:
Candida albicans = experiment: Antimicrobial screening by agar dilution; type: cell-based; conditions: after 10, 20, 40 and 60 minutes at all dilutions 1:100, 1:200, 1:400, 1:800
Protocol: (§1) The antibacterial properties of the synthesized compound 6-(3-hydroxyphenyl)-2-methoxy-4-(3-methylphenyl)nicotinonitrile were studied by the method of agar dilution. Test solutions of each compound was prepared in concentration of 1% using dimethylformamide as a solvent then they are diluted in physiological solution to obtain the final experimental dilutions 1:100, 1:200, 1:400, 1:800. The effects of these substances are compared with furacillin in a controllable study. The testing microbes used were gram positive bacteria Staphylococcus aureus, gram negative bacteria Pseudomonas aeruginosa and Escherichia coli and Candida albicans fungus. The experiments used for this survey were meat-pentonlu agar (EPA) for cultivation of bacteria and Saburo environment for the fungus. Each experiment used 1 mL of test solution on each plate […]. Two drops of emulsified with microbes feel were added. All experimental samples were taken from the agar after 10, 20, 40, 60 minutes in the environment on the basis of Patrk planted. The bacteria were cultivated at a temperature of 37° C. for 1 day and the mushroom was kept in a thermostat for […] at a temperature of 28° C. Then results were checked.

Escherichia coli = experiment: Antimicrobial screening by agar dilution; type: cell-based; conditions: after 10, 20, 40 and 60 minutes at all dilutions 1:100, 1:200, 1:400, 1:800
Protocol: as §1

Pseudomonas aeruginosa = experiment: Antimicrobial screening by agar dilution; type: cell-based; conditions: after 10, 20, 40 and 60 minutes at all dilutions 1:100, 1:200, 1:400, 1:800
Protocol: as §1

Staphylococcus aureus = experiment: Antimicrobial screening by agar dilution; type: cell-based; conditions: after 10, 20, 40 and 60 minutes at all dilutions 1:100, 1:200, 1:400, 1:800
Protocol: as §1

melting point: 205 to 207 °C
Compound: COc1nc(-c2cccc(O)c2)cc(-c2cccc(C)c2)c1C#N [6-(3-hydroxyphenyl)-2-methoxy-4-(3-methylphenyl)nicotinonitrile]
inhibition activity (in words) (Candida albicans): highest inhibition activity
inhibition activity (in words) (Escherichia coli): highest inhibition activity
inhibition activity (in words) (Pseudomonas aeruginosa): highest inhibition activity
inhibition activity (in words) (Staphylococcus aureus): highest inhibition activity

From patent US11970451B1, “6-(3-hydroxyphenyl)-2-methoxy-4-(3-methylphenyl)nicotinonitrile as an antimicrobial compound” (KING FAISAL UNIVERSITY, priority 2023, dated 2024)
